Experimental data from patent publication US12061201B2, “Fluorescent probes for the visualization of FtsZ in gram-positive and gram-negative bacterial pathogens” (Rutgers, The State University of New Jersey, priority 2019, dated 2024).

Legend:
Assay in all cases: Fluorescence microscopy FtsZ visualization in live cells
Assay type in all cases: cell-based
[1] = target: T1, FtsZ in E. coli ATCC 25922 cells (Escherichia coli, UniProt P0A9A6); details: 1 μg/mL BOFP for 5 minutes, no pentamidine
T1 construct: endogenous in cells; host or cells: E. coli ATCC 25922
Description: (§1) Fluorescence microscopy assay for visualizing FtsZ and monitoring cell division in live Gram-positive and Gram-negative bacterial cells using BOFP. All fluorescence microscopy experiments were conducted using an Olympus BX50 microscope equipped with an X-cite Exacte 200W mercury lamp, a 100× Olympus UPLSAPO oil immersion objective (1.40 aperture), and a Chroma ET-EGFP (FITC/Cy2) filter. Images were captured using a QImaging Retiga R3 charge-coupled device (CCD) camera and the Ocular-Version 2.0 software package (QImaging).
(§2) For visualizing FtsZ in Gram-negative bacteria using BOFP, E. coli ATCC 25922, K. pneumoniae ATCC 13883, P. aeruginosa ATCC 27853, and A. baumannii ATCC 19606 were grown to log-phase in CAMH broth. For each Gram-negative bacterial strain, a total of 1 mL of cell culture was centrifuged at 15,000×g for 1 minute and washed twice with 1 mL of Tris-buffered saline (TBS) composed of 50 mM Tris-HCl pH 7.6 and 150 mM NaCl. […] The resuspended cells were then incubated in the dark for 5 minutes at room temperature, centrifuged at 15,000×g for 1 minute, washed twice with 1 mL of TBS, and subsequently resuspended in 200 μL of TBS. This final cell suspension was then prepared for microscopy as described above for the Gram-positive bacterial strains.

[2] = system: FtsZ in K. pneumoniae ATCC 13883 cells
Description: as §1, §2

[3] = target: T2, FtsZ in P. aeruginosa ATCC 27853 cells (Pseudomonas aeruginosa, UniProt P47204); details: 1 μg/mL BOFP for 5 minutes, no pentamidine
T2 construct: endogenous in cells; host or cells: P. aeruginosa ATCC 27853
T2 sequence (P47204 1-394): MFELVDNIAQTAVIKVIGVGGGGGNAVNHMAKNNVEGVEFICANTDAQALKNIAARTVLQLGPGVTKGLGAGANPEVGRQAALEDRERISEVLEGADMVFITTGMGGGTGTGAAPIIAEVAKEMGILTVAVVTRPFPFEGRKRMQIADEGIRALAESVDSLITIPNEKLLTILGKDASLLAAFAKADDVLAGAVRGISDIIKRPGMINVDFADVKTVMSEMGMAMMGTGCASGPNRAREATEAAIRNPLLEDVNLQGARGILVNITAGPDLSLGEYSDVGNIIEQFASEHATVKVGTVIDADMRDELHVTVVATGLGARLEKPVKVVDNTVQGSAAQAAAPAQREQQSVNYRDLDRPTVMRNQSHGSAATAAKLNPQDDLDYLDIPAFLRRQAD
Description: as §1, §2

[4] = system: FtsZ in A. baumannii ATCC 19606 cells; details: 1 μg/mL BOFP for 5 minutes, no pentamidine
Description: as §1, §2

T1 sequence (P0A9A6 whole entry): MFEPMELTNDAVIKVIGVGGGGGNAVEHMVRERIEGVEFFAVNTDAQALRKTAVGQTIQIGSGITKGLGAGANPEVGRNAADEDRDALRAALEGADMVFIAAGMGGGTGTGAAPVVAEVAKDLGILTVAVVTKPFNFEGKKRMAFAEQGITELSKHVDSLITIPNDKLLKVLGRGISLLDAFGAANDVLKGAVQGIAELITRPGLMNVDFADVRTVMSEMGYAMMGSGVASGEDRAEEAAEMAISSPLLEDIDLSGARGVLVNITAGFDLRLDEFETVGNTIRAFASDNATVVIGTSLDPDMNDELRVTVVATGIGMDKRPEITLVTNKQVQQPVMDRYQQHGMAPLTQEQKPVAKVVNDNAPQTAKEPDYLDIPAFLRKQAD

Question: Which “FtsZ labeling in live cells without pentamidine” value [1] does the source give for CC1=CC(C)=[N+]2C1=Cc1ccc(CCC(=O)OCC(Oc3ccc(F)c(C(N)=O)c3F)c3nc(-c4ccc(C(F)(F)F)cc4)c(Br)o3)n1[B-]2(F)F (centres unmarked) [BOFP, 2-(5-bromo-4-(4-(trifluoromethyl)phenyl)-oxazol-2-yl)-2-(3-carbamoyl-2,4-difluorophenoxy)ethyl 3-(5,5-difluoro-7,9-dimethyl-5H-5λ^4,6λ^4-dipyrrolo[1,2-c:2′,1′-f][1,3,2]diazaborinin-3-yl)propanoate] here?
Answer: The value was “little or no FtsZ labeling”.

Question: What about the “FtsZ labeling in live cells without pentamidine” value ([2]; 1 μg/mL BOFP for 5 minutes, no pentamidine) of the same compound?
Answer: The value was “little or no FtsZ labeling”.

Question: What about the “FtsZ labeling (fluorescence staining) in live cells” value ([2]; 1 μg/mL BOFP with 3.5 mg/mL pentamidine isethionate, 5 minutes) of the same compound?
Answer: The value was “bright fluorescence staining is visible both at midcell and along the cell periphery”.

Question: And the “FtsZ labeling in live cells without pentamidine” value [3]?
Answer: Its value is “little or no FtsZ labeling”.

Question: What about the “FtsZ labeling in live cells without pentamidine” value [4] of the same compound?
Answer: The value was “little or no FtsZ labeling”.
